In article PMC9793461 (ADMET & DMPK, 2022):
Converted amounts (≈) assume the structure as drawn.

Experiments:
[1] = phosphate buffer pH 7.4 with 10 % (v/v) ethanol; cited from earlier work
[2] = Solubility of DEX in vegetable oils with cosolvents (shaker, HPLC); type: physicochemical; conditions: oil or lipid, thermodynamic from solid, 24 hours incubation
Method: After centrifugation, 200 μL of supernatant was diluted with 600 μL of tetrahydrofuran and 800 μL of acetonitrile in vials for the HPLC analysis. All samples were prepared in triplicates. Castor oil combined with 20 % (v/v) of isopropanol and castor oil with 20 % (v/v) of Capryol® 90 were chosen as the best formulations for the following experiments.
Samples from the solubility and partitioning studies were analysed on HPLC system Agilent 1100/1200 series connected to diode array detector adjusted to 241 nm. Kinetex C18 column (4.6 x 50 mm, particles 2.6 μm and pore size 100 Å) by Phenomenex (USA), heated to 40 °C, was used. The chromatograms were obtained with a gradient elution, where acetonitrile and buffer pH 2.0 were components of the mobile phase. Injector temperature was adjusted at 35 °C, the flow rate at 1.8 ml/min and sample injection volume at 10 μL. […] The two working standard solutions were obtained by further diluting the stock solution. […] The second standard solution was prepared by diluting 1 mL of stock solution in 100 mL acetonitrile. It was used for DEX assay in solutions composed of four other oils.

[3] = cited from earlier work

solubility at 24 h ([2]; castor oil with 20 % (v/v) Capryol 90, 37 °C): ~1200 µg/mL (≈ 3.06 mM)
solubility at 24 h ([2]; castor oil with 20 % (v/v) isopropanol, 37 °C): ~2300 µg/mL (≈ 5.86 mM)
SMILES: C[C@@H]1C[C@H]2[C@@H]3CCC4=CC(=O)C=C[C@]4(C)[C@@]3(F)[C@@H](O)C[C@]2(C)[C@@]1(O)C(=O)CO [DEX, Dexamethasone]
solubility of DEX [1]: 0.17 mg/mL
solubility in ethanol [3]: sparingly soluble
solubility in water [3]: practically insoluble
